Results as given in US20250032524A1, “BROAD SPECTRUM AMINOGLYCOSIDES AND USES THEREOF” (REVAGENIX, INC., priority 2022, published 2025).
Read-outs that look alike come from different tables or passages of the source.

Assays:
Format in all cases: cell-based
[1] = tested on: Methicillin-sensitive S. aureus (MSSA); assay: Antibacterial surveillance of clinical isolates (MIC50/90); conditions: Staphylococcus aureus, MSSA, 20 isolates
Procedure, shortened: (§1)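 CLSI broth microdilution in cation-adjusted Mueller-Hinton broth, final inoculum 5×10^5 CFU/mL, 2-fold compound dilutions, 35° C ambient air for 18-24 hours. MIC = lowest concentration preventing visible growth (OD 600 nm<0.05). SENTRY US/European isolates (1:1); MIC50/MIC90 = concentrations inhibiting ≥50%/≥90% of each set.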

[2] = tested on: A. baumannii-calcoaceticus; assay: as above; conditions: 100 isolates
Procedure, shortened: (§2)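 Broth microdilution per CLSI; CAMHB; 5×10^5 CFU/mL; 2-fold dilutions; 35° C, 18-24 h, ambient air. MIC endpoint OD 600 nm<0.05. US/EU SENTRY panels; MIC50/MIC90 per set.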

P. aeruginosa [3] = assay: as above; conditions: Pseudomonas aeruginosa, 103 isolates
Procedure, shortened: as §1

[4] = tested on: AG-resistant Enterobacterales; assay: as above
Procedure, shortened: as §2

[5] = tested on: Methicillin-resistant S. aureus (MRSA); assay: as above; conditions: Staphylococcus aureus, MRSA, 30 isolates
Procedure, shortened: as §1

[6] = tested on: AG-resistant P. aeruginosa; assay: as above; conditions: Pseudomonas aeruginosa, 50 isolates with defined aminoglycoside resistance
Procedure, shortened: as §1

Enterobacterales = assay: as above
Procedure, shortened: as §2

P. aeruginosa [7] = assay: MIC broth microdilution (CLSI); conditions: Pseudomonas aeruginosa
Procedure, shortened: (§3)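 Organisms from overnight agar colonies were adjusted to 0.5 McFarland and tested in cation-adjusted Mueller-Hinton broth at a final 5×10^5 CFU/mL against 2-fold serial compound dilutions. Plates were incubated in ambient air at 35° C. for 18-24 hours; MIC was the lowest concentration preventing visible growth (OD 600 nm<0.05).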

K. aerogenes = assay: MIC broth microdilution (CLSI); conditions: Klebsiella aerogenes; strain AEAE1042, MDR Clinical isolate (CDC CRE panel), CDC AR Bank 0161
Procedure, shortened: as §3

P. mirabilis = assay: MIC broth microdilution (CLSI); conditions: Proteus mirabilis; strain APMI1048, MDR Clinical isolate (CDC CRE panel), CDC AR Bank 0159
Procedure, shortened: as §3

A. baumannii = assay: MIC broth microdilution (CLSI); conditions: Acinetobacter baumannii
Procedure, shortened: as §3

S. enterica = assay: MIC broth microdilution (CLSI); conditions: Salmonella enterica, read-out: Activity (MIC)
Procedure, shortened: as §3

E. coli = assay: MIC broth microdilution (CLSI); conditions: Escherichia coli
Procedure, shortened: as §3

[8] = tested on: all sets of organisms tested (SENTRY clinical isolates); assay: Antibacterial surveillance, overall statement; conditions: all sets of organisms tested (Table 3); read-out: MIC50,90 values
Procedure: Minimum inhibitory concentrations for representative example compounds herein were determined by a broth microdilution method in accordance with the Clinical and Laboratory Standards Institute (CLSI) guidelines. In brief, organism suspensions were adjusted to a 0.5 McFarland standard to yield a final inoculum between 3×10^5 and 7×10^5 colony-forming units (CFU)/mL. The inoculum was prepared by suspension of a colony from an agar plate that was prepared the previous day. Compound dilutions and inoculum were prepared in sterile, cation adjusted Mueller-Hinton Broth (Beckton Dickinson).
Bacteria were suspended in sterile saline and added to each assay plate to obtain a final concentration of 5×10^5 CFU/mL. An inoculum volume of 100 μL was added to wells containing 100 μL of broth with 2-fold serial dilutions of the test compound. All inoculated microdilution trays were incubated in ambient air at 35° C. for 18-24 hours. Following incubation, the lowest concentration of the compound that prevented visible growth (OD 600 nm<0.05) is recorded was the MIC. […] Performance of the assay was monitored by the use of laboratory quality-control strains and a standard compound with a defined MIC spectrum (neomycin), in accordance with CLSI guidelines.
Several compounds of the disclosure (Compound 1, 2, and 3) were further evaluated against several hundred bacterial isolates (isolated in the United States and Europe, 1:1) selected from the SENTRY Antimicrobial Surveillance Program (JMI Laboratories, North Liberty, Iowa). The set of clinical isolates included 300 randomly selected Enterobacterales, 103 randomly selected P. aeruginosa, 100 randomly selected A. baumannii-calcoaceticus, 20 randomly selected Methicillin-sensitive S. aureus (MSSA), and 30 randomly selected Methicillin-resistant S. aureus (MRSA). In addition, 101 Enterobacterales and 50 P. aeruginosa isolates with genetically defined mechanisms of aminoglycoside resistance were included. […]

[9] = tested on: clinical isolates of multi-drug resistant bacterial pathogens including A. baumannii, MRSA, P. aeruginosa, and CRE; assay: MIC secondary panel, overall statement; conditions: read-out: minimum inhibitory concentration (MIC) values
Procedure, shortened: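 CLSI broth microdilution in cation-adjusted Mueller-Hinton broth, 2-fold compound dilutions, final inoculum 5×10^5 CFU/mL. Incubated in ambient air at 35° C for 18-24 hours; MIC is lowest concentration preventing visible growth (OD 600 nm<0.05). QC strains and neomycin standard monitored performance.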

C[C@H](N)[C@@H]1CC[C@@H](N)[C@@H](O[C@@H]2[C@@H](N)[C@H](O)[C@@H](NC(=O)[C@@H](O)[C@H](F)CN)[C@H](O)[C@H]2O[C@@H]2O[C@H](CO)[C@@H](O[C@H]3O[C@@H](CN)[C@@H](O)[C@H](O)[C@H]3N)[C@H]2O)O1 [Compound 3, (2R,3R)-4-amino-N-((1R,2S,3S,4R,5R,6S)-3-amino-4-(((2R,3R,6S)-3-amino-6-((S)-1-aminoethyl)tetrahydro-2H-pyran-2-yl)oxy)-5-(((2S,3R,4S,5R)-4-(((2R,3R,4R,5S,6S)-3-amino-6-(aminomethyl)-4,5-dihydroxytetrahydro-2H-pyran-2-yl)oxy)-3-hydroxy-5-(hydroxymethyl)tetrahydrofuran-2-yl)oxy)-2,6-dihydroxycyclohexyl)-3-fluoro-2-hydroxybutanamide]
MIC50 ([1]; read-out: MIC50): < 16 µg/mL | MIC90 ([1]; read-out: MIC90): < 16 µg/mL | MIC50 ([2]; read-out: MIC50): < 16 µg/mL | MIC90 ([2]; read-out: MIC90): < 16 µg/mL | MIC50 (P. aeruginosa [3]; read-out: MIC50): < 16 µg/mL | MIC90 (P. aeruginosa [3]; read-out: MIC90): < 16 µg/mL | MIC50 [4]: < 16 µg/mL | MIC90 [4]: < 16 µg/mL | MIC50 ([5]; read-out: MIC50): < 16 µg/mL | MIC90 ([5]; read-out: MIC90): < 16 µg/mL | MIC50 ([6]; read-out: MIC50): < 16 µg/mL | MIC90 ([6]; read-out: MIC90): < 16 µg/mL | MIC50 (Enterobacterales): < 16 µg/mL | MIC90 (Enterobacterales): < 16 µg/mL | MIC (P. aeruginosa [7]; read-out: Activity (MIC), strain NPAE0006, Efflux KO, Aph(3')-IIb): < 16 µg/mL | MIC (P. aeruginosa [7]; read-out: Activity (MIC), strain NPAE0010, MexXY over-expressed, Aph(3')-IIb): < 16 µg/mL | MIC (P. aeruginosa [7]; read-out: Activity (MIC), strain NPAE1288, MDR Clinical isolate): < 16 µg/mL | MIC (P. aeruginosa [7]; read-out: Activity (MIC), strain NPAE1293, MDR Clinical isolate): < 16 µg/mL | MIC (P. aeruginosa [7]; read-out: Activity (MIC), strain NPAE1299, MDR Clinical isolate): < 16 µg/mL | MIC (P. aeruginosa [7]; read-out: Activity (MIC), strain NPAE1302, MDR Clinical isolate): < 16 µg/mL | MIC (P. aeruginosa [7]; read-out: Activity (MIC), strain NPAE1303, MDR Clinical isolate): < 16 µg/mL | MIC (P. aeruginosa [7]; read-out: Activity (MIC), strain NPAE1308, MDR Clinical isolate): < 16 µg/mL | MIC (P. aeruginosa [7]; read-out: Activity (MIC), strain NPAE1310, MDR Clinical isolate): < 16 µg/mL | MIC (P. aeruginosa [7]; read-out: Activity (MIC), strain NPAE1313, MDR Clinical isolate): > 16 µg/mL | MIC (P. aeruginosa [7]; read-out: Activity (MIC), strain NPAE1316, MDR Clinical isolate): < 16 µg/mL | MIC (P. aeruginosa [7]; read-out: Activity (MIC), strain NPAE1323, MDR Clinical isolate): < 16 µg/mL | MIC (P. aeruginosa [7]; strain NPAE0001, WT Aph(3')-IIb, QC, read-out: Activity (MIC)): < 16 µg/mL | MIC (P. aeruginosa [7]; strain NPAE0002, WT Aph(3')-IIb, read-out: Activity (MIC)): < 16 µg/mL | MIC (P. aeruginosa [7]; strain NPAE0359, aph(3')-IIb KO (tetR), read-out: Activity (MIC)): < 16 µg/mL | MIC (K. aerogenes): < 16 µg/mL | MIC (P. mirabilis): < 16 µg/mL | MIC (A. baumannii; read-out: Activity (MIC), strain NABA0007, ΔadeJK efflux): < 16 µg/mL | MIC (A. baumannii; read-out: Activity (MIC), strain NABA1427, MDR Clinical isolate): < 16 µg/mL | MIC (A. baumannii; read-out: Activity (MIC), strain NABA1433, MDR Clinical isolate): < 16 µg/mL | MIC (A. baumannii; read-out: Activity (MIC), strain NABA1434, MDR Clinical isolate): < 16 µg/mL | MIC (A. baumannii; read-out: Activity (MIC), strain NABA1436, MDR Clinical isolate): < 16 µg/mL | MIC (A. baumannii; read-out: Activity (MIC), strain NABA1437, MDR Clinical isolate): < 16 µg/mL | MIC (A. baumannii; read-out: Activity (MIC), strain NABA1438, MDR Clinical isolate): < 16 µg/mL | MIC (A. baumannii; read-out: Activity (MIC), strain NABA1439, MDR Clinical isolate): < 16 µg/mL | MIC (A. baumannii; read-out: Activity (MIC), strain NABA1448, MDR Clinical isolate): < 16 µg/mL | MIC (A. baumannii; read-out: Activity (MIC), strain NABA1449, MDR Clinical isolate): < 16 µg/mL | MIC (A. baumannii; read-out: Activity (MIC), strain NABA1450, MDR Clinical isolate): < 16 µg/mL | MIC (A. baumannii; strain NABA0006, WT parent, read-out: Activity (MIC)): < 16 µg/mL | MIC (A. baumannii; strain NABA0020, AME negative strain, read-out: Activity (MIC)): < 16 µg/mL | MIC (S. enterica): < 16 µg/mL | MIC (E. coli; read-out: Activity (MIC), strain AECO1225, MDR Clinical isolate (CDC CRE panel), CDC AR Bank 0118): < 16 µg/mL | MIC (E. coli; read-out: Activity (MIC), strain AECO1226, MDR Clinical isolate (CDC CRE panel), CDC AR Bank 0119): < 16 µg/mL | MIC (E. coli; read-out: Activity (MIC), strain AECO1227, MDR Clinical isolate (CDC CRE panel), CDC AR Bank 0128): < 16 µg/mL | MIC (E. coli; read-out: Activity (MIC), strain NECO0003, ΔtolC): < 16 µg/mL | MIC (E. coli; read-out: Activity (MIC), strain NECO0245, ArmA): < 16 µg/mL | MIC (E. coli; strain NECO0001, WT QC, read-out: Activity (MIC)): < 16 µg/mL | MIC (E. coli; strain NECO0002, WT, read-out: Activity (MIC)): < 16 µg/mL | MIC (E. coli; strain NECO0243, empty vector, read-out: Activity (MIC)): < 16 µg/mL | MIC (E. coli; strain NECO0244, AAC(6')-Ib, read-out: Activity (MIC)): < 16 µg/mL | MIC (E. coli; strain NECO0289, APH(3')-Ia, read-out: Activity (MIC)): < 16 µg/mL | MIC (E. coli; strain NECO0302, AAC(3)-IIa, read-out: Activity (MIC)): < 16 µg/mL | MIC (E. coli; strain NECO0350, AAC(2')-I, read-out: Activity (MIC)): < 16 µg/mL | MIC (E. coli; strain NECO0359, ANT(4')-Ia, read-out: Activity (MIC)): < 16 µg/mL | MIC50 [8]: ≤ 16 µg/mL | MIC [9]: ≤ 16 µg/mL
